What was measured:
[1] = biological target: T1, cytochrome c (Equus caballus, UniProt P00004); test: Fluorescence quenching of labelled peptides by cytochrome c; type: binding, horse; set-up: from tissue; host or cells: horse heart; details: additions of 75 μg/ml BSA
[2] = biological target: T1, cytochrome c; test: as above; type: binding, horse; set-up: from tissue; host or cells: horse heart; details: Example 22; additions of cytochrome c (2 μM)
Protocol: Maximal fluorescence emission of SS-19 was monitored at 420 nm following excitation at 320 nm using Hitachi F-4500 fluorescence spectrophotometer.
The quenching by cytochrome c was not displaced by sequential additions of bovine serum albumin (FIG. 12C, A+arrows) (500 μg/ml). […] Accordingly, aromatic-cationic peptides of the present disclosure are useful for the prevention or treatment of diseases or disorders characterized by dysregulation of cytochrome c.
Fluorescence emission of SS-19 (10 μM) was monitored in real time (Ex/Em=320 nm/420 nm) using Hitachi F-4500 fluorescence spectrophotometer.
Interaction of SS peptides with horse heart cytochrome c in the absence or presence of free cardiolipin or cardiolipin/POPC (1:1) liposomes (prepared as described in Example 22) was examined by fluorescence quenching of [atn]SS-02 (λex/λem=320/420 nm) and [ald]SS-02 (λex/λem=360/510 nm) upon addition of cytochrome c (using a Hitachi F-4500 fluorescence spectrophotometer). The solvents used to dissolve cardiolipin and POPC had negligible effect on cytochrome c-dependent quenching of these peptides. All experiments were done in low ionic solution (deionized water) or 20 mM Hepes pH 7.4.

T1 sequence (P00004 2-105 limits assumed): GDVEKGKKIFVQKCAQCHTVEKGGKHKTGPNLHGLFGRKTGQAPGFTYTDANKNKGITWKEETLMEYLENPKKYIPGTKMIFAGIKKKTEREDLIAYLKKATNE

tetramethylrhodamine methyl ester [TMRM, reference compound]
reversal of cytochrome c quenching by BSA [1]: completely reversed quenching | quenching of fluorescence by cytochrome c [2]: slightly quenched
